Experimental data from US7378435B2, “Aryl-isoxazole-4-carbonyl-indole-carboxylic acid amide derivatives” (Hoffmann-La Roche Inc., priority 2005, dated 2008).
Read-outs that look alike come from different tables or passages of the source.

Target: T1, GABA A receptor α5β3γ2 (Homo sapiens, UniProt P18507+P31644)
T1 construct: expressed in transfected cells; host or cells: HEK293 (transiently transfected for the human receptors)
Test: [3H]flumazenil competition binding, human GABA A α5β3γ2 receptors expressed in HEK293 cells
Method: The affinity of compounds at GABA A receptor subtypes was measured by competition for [3H]flumazenil (85 Ci/mmol; Roche) binding to HEK293 cells expressing rat (stably transfected) or human (transiently transfected) receptors of composition α1β3γ2, α2β3γ2, α3β3γ2 and α5β3γ2.
Cell pellets were suspended in Krebs-tris buffer (4.8 mM KCl, 1.2 mM CaCl2, 1.2 mM MgCl2, 120 mM NaCl, 15 mM Tris; pH 7.5; binding assay buffer), homogenized by polytron for ca. 20 sec on ice and centrifuged for 60 min at 4° C. (50000 g; Sorvall, rotor: SM24=20000 rpm). The cell pellets were resuspended in Krebs-tris buffer and homogenized by polytron for ca. 15 sec on ice. Protein was measured (Bradford method, Bio-Rad) and aliquots of 1 mL were prepared and stored at −80° C.
Radioligand binding assays were carried out in a volume of […] (96-well plates) which contained […] of cell membranes, [3H]flumazenil at a concentration of 1 nM for α1, α2, α3 subunits and 0.5 nM for α5 subunits and the test compound in the range of […]. Nonspecific binding was defined by 10^−5 M diazepam and typically represented less than 5% of the total binding. Assays were incubated to equilibrium for 1 hour at 4° C. and harvested onto GF/C uni-filters (Packard) by filtration using a Packard harvester and washing with ice-cold wash buffer (50 mM Tris; pH 7.5). After drying, filter-retained radioactivity was detected by liquid scintillation counting. Ki values were calculated using Excel-Fit (Microsoft) and are the means of two determinations.

[1] = Table 1, human α5, [3H]flumazenil, mean of two determinations, read-out: Ki h
[2] = human α5β3γ2, 0.5 nM [3H]flumazenil, mean of two determinations, read-out: Ki[μM] hα5

SMILES	Ki [1]	Ki	Ki [2]
Cc1onc(-c2cccc(F)c2)c1C(=O)c1c[nH]c2cc(C(=O)NCC3CC3)ccc12 [Example 30, 3-[3-(3-Fluoro-phenyl)-5-methyl-isoxazole-4-carbonyl]-1H-indole-6-carboxylicacidcyclopropylmethyl-amide]	0.0537 µM		
C#CCNC(=O)c1ccc2c(C(=O)c3c(-c4cccc(F)c4)noc3C)c[nH]c2c1 [Example 31, 3-[3-(3-Fluoro-phenyl)-5-methyl-isoxazole-4-carbonyl]-1H-indole-6-carboxylicacid prop-2-ynylamide]	0.0319 µM		
Cc1onc(-c2cccc(F)c2)c1C(=O)c1c[nH]c2cc(C(=O)NC3CCOCC3)ccc12 [Example 32, 3-[3-(3-Fluoro-phenyl)-5-methyl-isoxazole-4-carbonyl]-1H-indole-6-carboxylicacid (tetrahydro-pyran-4-yl)-amide]	0.0418 µM		
Cc1onc(-c2cccc(F)c2)c1C(=O)c1c[nH]c2cc(C(=O)NC3CCCC3)ccc12 [Example 33, 3-[3-(3-Fluoro-phenyl)-5-methyl-isoxazole-4-carbonyl]-1H-indole-6-carboxylicacidcyclopentylamide]	0.0953 µM		
Cc1onc(-c2cccc(F)c2)c1C(=O)c1c[nH]c2cc(C(=O)NC3CCC3)ccc12 [Example 34, 3-[3-(3-Fluoro-phenyl)-5-methyl-isoxazole-4-carbonyl]-1H-indole-6-carboxylicacidcyclobutylamide]	0.059 µM		
Cc1onc(-c2cccc(F)c2)c1C(=O)c1c[nH]c2cc(C(=O)NC3CC3)ccc12 [Example 35, 3-[3-(3-Fluoro-phenyl)-5-methyl-isoxazole-4-carbonyl]-1H-indole-6-carboxylicacidcyclopropylamide]	0.038 µM		
CC(C)c1onc(-c2cccc(F)c2)c1C(=O)c1c[nH]c2cc(C(=O)NCc3ccco3)ccc12 [Example 36, 3-[3-(3-Fluoro-phenyl)-5-isopropyl-isoxazole-4-carbonyl]-1H-indole-6-carboxylicacid (furan-2-ylmethyl)-amide]	0.0454 µM		
CC(C)c1onc(-c2cccc(F)c2)c1C(=O)c1c[nH]c2cc(C(=O)NCC3CC3)ccc12 [Example 37, 3-[3-(3-Fluoro-phenyl)-5-isopropyl-isoxazole-4-carbonyl]-1H-indole-6-carboxylicacidcyclopropylmethyl-amide]	0.0393 µM		
C#CCNC(=O)c1ccc2c(C(=O)c3c(-c4cccc(F)c4)noc3C(C)C)c[nH]c2c1 [Example 38, 3-[3-(3-Fluoro-phenyl)-5-isopropyl-isoxazole-4-carbonyl]-1H-indole-6-carboxylicacid prop-2-ynylamide]	0.0315 µM		
CC(C)c1onc(-c2cccc(F)c2)c1C(=O)c1c[nH]c2cc(C(=O)NC3CCOCC3)ccc12 [Example 39, 3-[3-(3-Fluoro-phenyl)-5-isopropyl-isoxazole-4-carbonyl]-1H-indole-6-carboxylicacid (tetrahydro-pyran-4-yl)-amide]	0.0386 µM		
CC(C)c1onc(-c2cccc(F)c2)c1C(=O)c1c[nH]c2cc(C(=O)NC3CCCC3)ccc12 [Example 40, 3-[3-(3-Fluoro-phenyl)-5-isopropyl-isoxazole-4-carbonyl]-1H-indole-6-carboxylicacidcyclopentylamide]	0.0447 µM		
Cc1onc(-c2cccc(F)c2)c1C(=O)c1cn(C)c2cc(C(=O)NCCN3CCOCC3)ccc12 [Example 41, 3-[3-(3-Fluoro-phenyl)-5-methyl-isoxazole-4-carbonyl]-1-methyl-1H-indole-6-carboxylic acid(2-morpholin-4-yl-ethyl)-amide]		0.0249 µM	
Cc1onc(-c2cccc(F)c2)c1C(=O)c1cn(C)c2cc(C(=O)NCc3ccco3)ccc12 [Example 42, 3-[3-(3-Fluoro-phenyl)-5-methyl-isoxazole-4-carbonyl]-1-methyl-1H-indole-6-carboxylic acid(furan-2-ylmethyl)-amide]		0.0769 µM	
Cc1onc(-c2cccc(F)c2)c1C(=O)c1cn(C)c2cc(C(=O)NCC3CC3)ccc12 [Example 43, 3-[3-(3-Fluoro-phenyl)-5-methyl-isoxazole-4-carbonyl]-1-methyl-1H-indole-6-carboxylic acidcyclopropylmethyl-amide]		0.0667 µM	
C#CCNC(=O)c1ccc2c(C(=O)c3c(-c4cccc(F)c4)noc3C)cn(C)c2c1 [Example 44, 3-[3-(3-Fluoro-phenyl)-5-methyl-isoxazole-4-carbonyl]-1-methyl-1H-indole-6-carboxylic acidprop-2-ynylamide]		0.0383 µM	
Cc1onc(-c2cccc(F)c2)c1C(=O)c1cn(C)c2cc(C(=O)NC3CCOCC3)ccc12 [Example 45, 3-[3-(3-Fluoro-phenyl)-5-methyl-isoxazole-4-carbonyl]-1-methyl-1H-indole-6-carboxylic acid(tetrahydro-pyrann-4-yl)-amide]		0.049 µM	
Cc1onc(-c2cccc(F)c2)c1C(=O)c1cn(C)c2cc(C(=O)NC3CCCC3)ccc12 [Example 46, 3-[3-(3-Fluoro-phenyl)-5-methyl-isoxazole-4-carbonyl]-1-methyl-1H-indole-6-carboxylic acidcyclopentylamide]	0.111 µM		
Cc1onc(-c2cccc(F)c2)c1C(=O)c1cn(-c2ccccc2)c2cc(C(=O)NCc3ccco3)ccc12 [Example 47, 3-[3-(3-Fluoro-phenyl)-5-methyl-isoxazole-4-carbonyl]-1-phenyl-1H-indole-6-carboxylic acid(furan-2-ylmethyl)-amide]	0.0253 µM		
Cc1onc(-c2cccc(F)c2)c1C(=O)c1cn(-c2ccccc2)c2cc(C(=O)NCC3CC3)ccc12 [Example 48, 3-[3-(3-Fluoro-phenyl)-5-methyl-isoxazole-4-carbonyl]-1-phenyl-1H-indole-6-carboxylic acidcyclopropylmethyl-amide]	0.0138 µM		
C#CCNC(=O)c1ccc2c(C(=O)c3c(-c4cccc(F)c4)noc3C)cn(-c3ccccc3)c2c1 [Example 49, 3-[3-(3-Fluoro-phenyl)-5-methyl-isoxazole-4-carbonyl]-1-phenyl-1H-indole-6-carboxylic acidprop-2-ynylamide]	0.0085 µM		0.0085 µM
Cc1onc(-c2cccc(F)c2)c1C(=O)c1cn(-c2ccccc2)c2cc(C(=O)NC3CCOCC3)ccc12 [Example 50, 3-[3-(3-Fluoro-phenyl)-5-methyl-isoxazole-4-carbonyl]-1-phenyl-1H-indole-6-carboxylic acid(tetrahydro-pyran-4-yl)-amide]	0.0098 µM		0.0098 µM
Cc1onc(-c2cccc(F)c2)c1C(=O)c1cn(-c2ccccc2)c2cc(C(=O)NC3CCCC3)ccc12 [Example 51, 3-[3-(3-Fluoro-phenyl)-5-methyl-isoxazole-4-carbonyl]-1-phenyl-1H-indole-6-carboxylic acidcyclopentylamide]		0.0402 µM	
